Measurements from the supplement of paper PMC9938120.

How the values were obtained:
Test in all cases: drug sensitivity score (DSS3, normalised partial AUC of % inhibition dose-response) (DSS (score)); higher = more sensitive (stronger inhibition of viability); extreme values may be limits of the assay
FMOC25_1 = patient-derived low-grade serous ovarian cancer cells; conditions: 72 h; library: FO4B; assay format: 2D, 384-well, CellTiter-Glo
Method in brief: (§1)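 Early-passage (under 10) patient-derived ovarian cancer cells were dispensed onto 384-well flat clear-bottom plates pre-plated with compounds at five concentrations spanning a 10,000-fold range, then incubated 72 h at 37 °C, 5% CO2. Viability was read with CellTiter-Glo, and the data were processed in Breeze. The drug sensitivity score is a partial area under the percent-inhibition dose-response curve divided by the log of the upper asymptote, with higher values meaning greater sensitivity.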

FMOC02_3 = patient-derived low-grade serous ovarian cancer cells; conditions: 72 h; library: FO5A; assay format: 2D, 384-well, CellTiter-Glo
Method in brief: as §1

FMOC03 = patient-derived mucinous ovarian cancer cells; conditions: 72 h; library: FO5A; assay format: 2D, 384-well, CellTiter-Glo
Method in brief: as §1

FMOC24 = patient-derived high-grade serous ovarian cancer cells; conditions: 72 h; library: FO5A; assay format: 2D, 384-well, CellTiter-Glo
Method in brief: as §1

FMOC22 = patient-derived mucinous ovarian cancer cells; conditions: 72 h; library: FO5A; assay format: 2D, 384-well, CellTiter-Glo
Method in brief: as §1

FMOC14 = patient-derived high-grade serous ovarian cancer cells; conditions: 72 h; library: FO5A; assay format: 2D, 384-well, CellTiter-Glo
Method in brief: as §1

FMOC17 = patient-derived low-grade serous ovarian cancer cells; conditions: 72 h; library: FO5A; assay format: 2D, 384-well, CellTiter-Glo
Method in brief: as §1

FMOC09 = patient-derived high-grade serous ovarian cancer cells; conditions: 72 h; library: FO5A; assay format: 2D, 384-well, CellTiter-Glo
Method in brief: as §1

FMOC25_2 = patient-derived low-grade serous ovarian cancer cells; conditions: 72 h; library: FO5A; assay format: 2D, 384-well, CellTiter-Glo
Method in brief: as §1

FMOC02_1 = patient-derived low-grade serous ovarian cancer cells; conditions: 72 h; library: FO5A; assay format: 2D, 384-well, CellTiter-Glo
Method in brief: as §1

FMOC11 = patient-derived high-grade serous ovarian cancer cells; conditions: 72 h; library: FO5A; assay format: 2D, 384-well, CellTiter-Glo
Method in brief: as §1

FMOC02_2 = patient-derived low-grade serous ovarian cancer cells; conditions: 72 h; library: FO5A; assay format: 2D, 384-well, CellTiter-Glo
Method in brief: as §1

FMOC27 = patient-derived low-grade serous ovarian cancer cells; conditions: 72 h; library: FO5A; assay format: 2D, 384-well, CellTiter-Glo
Method in brief: as §1

FMOC28 = patient-derived low-grade serous ovarian cancer cells; conditions: 72 h; library: FO5A; assay format: 2D, 384-well, CellTiter-Glo
Method in brief: as §1

FMOC06 = patient-derived mucinous ovarian cancer cells; conditions: 72 h; library: FO5A; assay format: 2D, 384-well, CellTiter-Glo
Method in brief: as §1

FMOC04 = patient-derived high-grade serous ovarian cancer cells; conditions: 72 h; library: FO5A; assay format: 2D, 384-well, CellTiter-Glo
Method in brief: as §1

| Structure (SMILES) | drug sensitivity score (FMOC25_1) | drug sensitivity score (FMOC02_3) | drug sensitivity score (FMOC03) | drug sensitivity score (FMOC24) | drug sensitivity score (FMOC22) | drug sensitivity score (FMOC14) | drug sensitivity score (FMOC17) | drug sensitivity score (FMOC09) | drug sensitivity score (FMOC25_2) | drug sensitivity score (FMOC02_1) | drug sensitivity score (FMOC11) | drug sensitivity score (FMOC02_2) | drug sensitivity score (FMOC27) | drug sensitivity score (FMOC28) | drug sensitivity score (FMOC06) | drug sensitivity score (FMOC04) |
| --- | --- | --- | --- | --- | --- | --- | --- | --- | --- | --- | --- | --- | --- | --- | --- | --- |
| CC(=O)N(O)CCCCCNC(=O)CCC(=O)N(O)CCCCCNC(=O)CCC(=O)N(O)CCCCCN [Deferoxamine] | 1.1 | 0.2 | 4.1 | 0 | 1.1 | 1.2 | 0 | 1.4 | 0 | 0 | 4.5 | 0 | 0 | 0 | 1.4 | 0 |
| Cc1cc(C(C)Nc2ccccc2)c2nc(N3CCOCC3)cc(=O)n2c1 (stereo not drawn) [TGX-221] | 1.7 | 0.8 | 1 | 0.75 | 0 | 0 | 2.4 | 0 | 2.6 | 2 | 0.3 | 3.3 | 2 | 0 | 1.1 | 0.35 |
| N#CC(c1ccnc(OCc2ccc(CN3CCOCC3)cc2)n1)c1nc2ccccc2s1 (stereo not drawn) [Bentamapimod] | 0.7 | 1.7 | 2.8 | 5.8 | 2 | 2.3 | 4.2 | 2.9 | 1 | 1.1 | 3.2 | 0.9 | 0 | 3.8 | 2 | 0.4 |
| CS(=O)(=O)c1ccc(-c2cnc(N)c(C(=O)Nc3ccccc3)n2)cc1 [VE-821] | 0.6 | 0.2 | 0 | 3.65 | 0 | 1.9 | 0 | 0 | 2.2 | 3.3 | 0 | 0.8 | 1.3 | 0 | 0 | 0 |
| C=C1C[C@@H]2[C@H](CC[C@]3(C)C(=O)CC[C@@H]23)[C@@]2(C)C=CC(=O)C=C12 [Exemestane] | 0 | 0 | 0 | 0.35 | 0 | 0 | 0 | 0 | 0 | 0 | 0 | 0 | 0 | 0 | 0.4 | 0 |
| Nc1nc(Nc2ccc3c(c2)CC[C@@H](N2CCCC2)CC3)nn1-c1cc2c(nn1)-c1ccccc1CCC2 [BGB324] | 5.1 | 7.6 | 2.4 | 7.9 | 1.7 | 6.2 | 3.8 | 0.9 | 2.7 | 7.2 | 4.4 | 5 | 0.3 | 0.8 | 3.7 | 5.35 |
| Cc1cc([C@@H](C)Nc2ccccc2C(=O)O)c2nc(N3CCOCC3)cc(=O)n2c1 [AZD-6482] | 2.5 | 2.3 | 0.5 | 0.5 | 0 | 0.4 | 2.8 | 0.1 | 0.8 | 0 | 0.9 | 0.6 | 0 | 0 | 0 | 0 |
| O=C1NC(=O)[C@@H](c2cn3c4c(cccc24)CCC3)[C@@H]1c1c[nH]c2ccccc12 [Tivantinib] | 4.2 | 5 | 3.1 | 0.65 | 2.5 | 0 | 4.9 | 4.3 | 2.1 | 4.7 | 2.8 | 3.7 | 2.5 | 3.3 | 2.7 | 5.1 |
| COc1cc(CCc2cc(NC(=O)c3ccc(N4CC(C)NC(C)C4)cc3)n[nH]2)cc(OC)c1 (stereo not drawn) [AZD4547] | 0 | 0 | 0 | 0 | 0 | 0 | 0 | 0 | 0 | 0 | 0 | 0 | 0 | 0 | 0 | 0 |
| CC1=C(/C=C/C(C)=C/C=C/C(C)=C/C(=O)O)C(C)(C)CCC1 [Tretinoin] | 0 | 5.2 | 0 | 0 | 0 | 0 | 0 | 0 | 0.2 | 0 | 2 | 0 | 0 | 0 | 0.1 | 0 |
| Cc1ccc(-c2cc(C(F)(F)F)nn2-c2ccc(S(N)(=O)=O)cc2)cc1 [Celecoxib] | 0 | 0 | 0 | 0 | 0 | 0 | 0 | 0 | 0 | 0 | 0 | 0 | 0 | 0.3 | 0 | 0 |
| COc1cc2c(NC3CCN(C(C)C)CC3)nc(C3CCCCC3)nc2cc1OCCCN1CCCC1 [UNC0638] | 0.2 | 5.4 | 0 | 7.6 | 2 | 3.1 | 4.7 | 1.9 | 6.5 | 5.5 | 3.5 | 0.5 | 2.1 | 0 | 1.7 | 4.3 |
| NC(=O)c1cccc2cn(-c3ccc([C@@H]4CCCNC4)cc3)nc12 [Niraparib] | 1.5 | 6.6 | 0 | 5.55 | 1.9 | 0 | 0 | 1.6 | 4.8 | 4.2 | 1.4 | 2.6 | 3.2 | 5.4 | 1.5 | 0.55 |
